Test results published in ChEMBL document CHEMBL1155520, “Novel 8a-aza-8a-homoerythromycin--4''-(3-substituted-amino)propionates with broad spectrum antibacterial activity” (2010).
Values after ≈ are worked out from the molar mass of the structure shown.

Tests used:
Format in all cases: functional
Staphylococcus aureus [1] = test: Antimicrobial activity against macrolide-sensitive Staphylococcus aureus ATCC 13709
Streptococcus pneumoniae [2] = test: Antimicrobial activity against macrolide-resistant Streptococcus pneumoniae Ci137
Streptococcus pyogenes [3] = test: Antimicrobial activity against inducible macrolide, lincosamide, streptogramin-resistant Streptococcus pyogenes Finland 11
Haemophilus influenzae = test: Antimicrobial activity against Haemophilus influenzae ATCC 49247
Streptococcus pneumoniae [4] = test: Antimicrobial activity against inducible macrolide, lincosamide, streptogramin-resistant Streptococcus pneumoniae 134 GRM
Streptococcus pneumoniae [5] = test: Antimicrobial activity against inducible macrolide and constitutive lincosamide, streptogramin-resistant Streptococcus pneumoniae 58 Spain
Streptococcus pyogenes [6] = test: Antimicrobial activity against inducible macrolide-resistant Streptococcus pyogenes Finland 3
Streptococcus pyogenes [7] = test: Antimicrobial activity against inducible macrolide and constitutive lincosamide, streptogramin-resistant Streptococcus pyogenes 166 GR-micro
Staphylococcus aureus [8] = test: Antimicrobial activity against macrolide-sensitive Staphylococcus aureus PK1
Streptococcus pneumoniae [9] = test: Antimicrobial activity against macrolide-sensitive Streptococcus pneumoniae SPO 30
Streptococcus pyogenes [10] = test: Antimicrobial activity against macrolide-sensitive Streptococcus pyogenes 3665
Streptococcus pneumoniae [11] = test: Antimicrobial activity against inducible macrolide and constitutive lincosamide, streptogramin-resistant Streptococcus pneumoniae 4636

For `CC[C@H]1OC(=O)[C@H](C)[C@@H](O[C@H]2C[C@@](C)(OC)[C@@H](OC(=O)CCN3CCN(c4cc5c(cc4F)c(=O)ccn5C4CC4)CC3)[C@H](C)O2)[C@H](C)[C@@H](O[C@@H]2O[C@H](C)C[C@H](N(C)C)[C@H]2O)[C@](C)(O)C[C@@H](C)NC(=O)[C@H](C)[C@@H](O)[C@]1(C)O`, the MIC (Staphylococcus aureus [1]) was 1 µg/mL (≈ 0.917 µM), the MIC (Streptococcus pneumoniae [2]) was < 0.13 µg/mL and the MIC (Streptococcus pyogenes [3]) was 0.5 µg/mL (≈ 0.459 µM). For the same molecule, the MIC (Haemophilus influenzae) was 8 µg/mL (≈ 7.34 µM), the MIC (Streptococcus pneumoniae [4]) was > 32 µg/mL and the MIC (Streptococcus pneumoniae [5]) was > 32 µg/mL.

In the case of `CC[C@H]1OC(=O)[C@H](C)[C@@H](O[C@H]2C[C@@](C)(OC)[C@@H](OC(=O)CCN3CCN(c4cc5c(cc4F)c(=O)ccn5C4CC4)CC3)[C@H](C)O2)[C@H](C)[C@@H](O[C@@H]2O[C@H](C)C[C@H](N(C)C)[C@H]2O)[C@](C)(OC)C[C@@H](C)NC(=O)[C@H](C)[C@@H](O)[C@]1(C)O`, the MIC (Streptococcus pyogenes [6]) is reported as < 0.13 µg/mL, the MIC (Staphylococcus aureus [1]) is reported as 1 µg/mL (≈ 0.905 µM) and the MIC (Streptococcus pneumoniae [2]) is reported as < 0.13 µg/mL. For the same molecule, the MIC (Streptococcus pyogenes [3]) was 1 µg/mL (≈ 0.905 µM), the MIC (Haemophilus influenzae) was 8 µg/mL (≈ 7.24 µM) and the MIC (Streptococcus pneumoniae [4]) was > 64 µg/mL. For the same molecule, the MIC (Streptococcus pneumoniae [5]) was 64 µg/mL (≈ 58 µM), the MIC (Streptococcus pyogenes [7]) was > 64 µg/mL and the MIC (Staphylococcus aureus [8]) was 8 µg/mL (≈ 7.24 µM).

For `CC[C@H]1OC(=O)[C@H](C)[C@@H](O[C@H]2C[C@@](C)(OC)[C@@H](OC(=O)CCN3CCN(c4cc5c(cc4F)c(=O)c(C(=O)O)cn5C4CC4)CC3)[C@H](C)O2)[C@H](C)[C@@H](O[C@@H]2O[C@H](C)C[C@H](N(C)C)[C@H]2O)[C@](C)(OC)C[C@@H](C)NC(=O)[C@H](C)[C@@H](O)[C@]1(C)O`, the MIC (Streptococcus pyogenes [6]) was 0.5 µg/mL (≈ 0.435 µM), the MIC (Staphylococcus aureus [1]) was 1 µg/mL (≈ 0.871 µM) and the MIC (Streptococcus pneumoniae [2]) was < 0.13 µg/mL. For the same molecule, the MIC (Streptococcus pyogenes [3]) was 0.5 µg/mL (≈ 0.435 µM), the MIC (Haemophilus influenzae) was 1 µg/mL (≈ 0.871 µM) and the MIC (Streptococcus pneumoniae [4]) was 8 µg/mL (≈ 6.97 µM). For the same molecule, the MIC (Streptococcus pneumoniae [5]) was 16 µg/mL (≈ 13.9 µM), the MIC (Streptococcus pyogenes [7]) was 8 µg/mL (≈ 6.97 µM) and the MIC (Staphylococcus aureus [8]) was 2 µg/mL (≈ 1.74 µM).

For `CC[C@H]1OC(=O)[C@H](C)[C@@H](O[C@H]2C[C@@](C)(OC)[C@@H](OC(=O)CCNCCNc3cc4c(cc3F)c(=O)c(C(=O)O)cn4C3CC3)[C@H](C)O2)[C@H](C)[C@@H](O[C@@H]2O[C@H](C)C[C@H](N(C)C)[C@H]2O)[C@](C)(O)C[C@@H](C)NC(=O)[C@H](C)[C@@H](O)[C@]1(C)O`, the MIC (Streptococcus pyogenes [6]) was 0.25 µg/mL (≈ 0.226 µM), the MIC (Staphylococcus aureus [1]) was 0.25 µg/mL (≈ 0.226 µM) and the MIC (Streptococcus pneumoniae [2]) was < 0.13 µg/mL. The MIC (Streptococcus pyogenes [3]) was < 0.13 µg/mL, the MIC (Streptococcus pneumoniae [4]) was < 0.13 µg/mL and the MIC (Streptococcus pneumoniae [5]) was < 0.13 µg/mL. The MIC (Streptococcus pyogenes [7]) was 0.25 µg/mL (≈ 0.226 µM) and the MIC (Staphylococcus aureus [8]) was 0.5 µg/mL (≈ 0.451 µM).

`CC[C@H]1OC(=O)[C@H](C)[C@@H](O[C@H]2C[C@@](C)(OC)[C@@H](OC(=O)CCNCCNc3cc4c(cc3F)c(=O)c(C(=O)O)cn4C3CC3)[C@H](C)O2)[C@H](C)[C@@H](O[C@@H]2O[C@H](C)C[C@H](N(C)C)[C@H]2O)[C@](C)(OC)C[C@@H](C)NC(=O)[C@H](C)[C@@H](O)[C@]1(C)O` was tested, and the MIC (Streptococcus pyogenes [6]) was 0.5 µg/mL (≈ 0.445 µM), the MIC (Staphylococcus aureus [1]) was < 0.13 µg/mL and the MIC (Streptococcus pneumoniae [2]) was < 0.13 µg/mL. The MIC (Streptococcus pyogenes [3]) was < 0.13 µg/mL, the MIC (Haemophilus influenzae) was 4 µg/mL (≈ 3.56 µM) and the MIC (Streptococcus pneumoniae [4]) was < 0.13 µg/mL. The MIC (Streptococcus pneumoniae [5]) was < 0.13 µg/mL, the MIC (Streptococcus pyogenes [7]) was 0.25 µg/mL (≈ 0.223 µM) and the MIC (Staphylococcus aureus [8]) was < 0.13 µg/mL.

`NCCNc1cc2c(cc1F)c(=O)c(C(=O)O)cn2C1CC1` was tested, and the MIC (Streptococcus pyogenes [6]) was > 64 µg/mL, the MIC (Staphylococcus aureus [1]) was > 64 µg/mL and the MIC (Streptococcus pneumoniae [2]) was > 64 µg/mL. For the same molecule, the MIC (Streptococcus pyogenes [3]) was > 64 µg/mL, the MIC (Haemophilus influenzae) was > 64 µg/mL and the MIC (Streptococcus pneumoniae [4]) was > 64 µg/mL. The MIC (Streptococcus pneumoniae [5]) was > 64 µg/mL, the MIC (Streptococcus pyogenes [7]) was > 64 µg/mL and the MIC (Staphylococcus aureus [8]) was > 64 µg/mL.

In the case of `CC[C@H]1OC(=O)[C@H](C)[C@@H](O[C@H]2C[C@@](C)(OC)[C@@H](O)[C@H](C)O2)[C@H](C)[C@@H](O[C@@H]2O[C@H](C)C[C@H](N(C)C)[C@H]2O)[C@](C)(O)C[C@@H](C)NC(=O)[C@H](C)[C@@H](O)[C@]1(C)O`, the MIC (Streptococcus pyogenes [6]) is reported as 32 µg/mL (≈ 42.7 µM), the MIC (Staphylococcus aureus [1]) is reported as 1 µg/mL (≈ 1.34 µM) and the MIC (Streptococcus pneumoniae [9]) is reported as < 0.13 µg/mL. The MIC (Streptococcus pyogenes [10]) was < 0.13 µg/mL, the MIC (Streptococcus pneumoniae [2]) was 32 µg/mL (≈ 42.7 µM) and the MIC (Streptococcus pyogenes [3]) was 16 µg/mL (≈ 21.4 µM). The MIC (Streptococcus pneumoniae [11]) was > 64 µg/mL, the MIC (Haemophilus influenzae) was 2 µg/mL (≈ 2.67 µM) and the MIC (Streptococcus pneumoniae [4]) was > 64 µg/mL. The MIC (Streptococcus pneumoniae [5]) was > 64 µg/mL, the MIC (Streptococcus pyogenes [7]) was > 64 µg/mL and the MIC (Staphylococcus aureus [8]) was > 64 µg/mL.

`CC[C@H]1OC(=O)[C@H](C)[C@@H](O[C@H]2C[C@@](C)(OC)[C@@H](O)[C@H](C)O2)[C@H](C)[C@@H](O[C@@H]2O[C@H](C)C[C@H](N(C)C)[C@H]2O)[C@](C)(OC)C[C@@H](C)NC(=O)[C@H](C)[C@@H](O)[C@]1(C)O` was tested, and the MIC (Streptococcus pyogenes [6]) was 32 µg/mL (≈ 41.9 µM), the MIC (Staphylococcus aureus [1]) was 0.5 µg/mL (≈ 0.655 µM) and the MIC (Streptococcus pneumoniae [9]) was < 0.13 µg/mL. For the same molecule, the MIC (Streptococcus pyogenes [10]) was < 0.13 µg/mL, the MIC (Streptococcus pneumoniae [2]) was 16 µg/mL (≈ 21 µM) and the MIC (Streptococcus pyogenes [3]) was 8 µg/mL (≈ 10.5 µM). For the same molecule, the MIC (Streptococcus pneumoniae [11]) was > 64 µg/mL, the MIC (Haemophilus influenzae) was 4 µg/mL (≈ 5.24 µM) and the MIC (Streptococcus pneumoniae [4]) was > 64 µg/mL. For the same molecule, the MIC (Streptococcus pneumoniae [5]) was > 64 µg/mL, the MIC (Streptococcus pyogenes [7]) was > 64 µg/mL and the MIC (Staphylococcus aureus [8]) was > 64 µg/mL.

`CC[C@H]1OC(=O)[C@H](C)[C@@H](O[C@H]2C[C@@](C)(OC)[C@@H](O)[C@H](C)O2)[C@H](C)[C@@H](O[C@@H]2O[C@H](C)C[C@H](N(C)C)[C@H]2O)[C@](C)(O)C[C@@H](C)CN(C)[C@H](C)[C@@H](O)[C@]1(C)O` [AZITHROMYCIN] was tested, and the MIC (Streptococcus pyogenes [6]) was 8 µg/mL (≈ 10.7 µM), the MIC (Staphylococcus aureus [1]) was 0.5 µg/mL (≈ 0.668 µM) and the MIC (Streptococcus pneumoniae [9]) was < 0.13 µg/mL. The MIC (Streptococcus pyogenes [10]) was < 0.13 µg/mL, the MIC (Streptococcus pneumoniae [2]) was 8 µg/mL (≈ 10.7 µM) and the MIC (Streptococcus pyogenes [3]) was 16 µg/mL (≈ 21.4 µM). For the same molecule, the MIC (Streptococcus pneumoniae [11]) was > 64 µg/mL, the MIC (Haemophilus influenzae) was 1 µg/mL (≈ 1.34 µM) and the MIC (Streptococcus pneumoniae [4]) was > 64 µg/mL. The MIC (Streptococcus pneumoniae [5]) was > 64 µg/mL, the MIC (Streptococcus pyogenes [7]) was > 64 µg/mL and the MIC (Staphylococcus aureus [8]) was > 64 µg/mL.

`CC[C@H]1OC(=O)[C@H](C)C(=O)[C@H](C)[C@@H](O[C@@H]2O[C@H](C)C[C@H](N(C)C)[C@H]2O)[C@](C)(OC)C[C@@H](C)C(=O)[C@H](C)[C@H]2N(CCCCn3cnc(-c4cccnc4)c3)C(=O)O[C@]12C` [TELITHROMYCIN] was tested, and the MIC (Streptococcus pyogenes [6]) was 0.5 µg/mL (≈ 0.616 µM), the MIC (Staphylococcus aureus [1]) was < 0.06 µg/mL and the MIC (Streptococcus pneumoniae [2]) was 0.25 µg/mL (≈ 0.308 µM). The MIC (Streptococcus pyogenes [3]) was 0.06 µg/mL (≈ 0.0739 µM), the MIC (Haemophilus influenzae) was 2 µg/mL (≈ 2.46 µM) and the MIC (Streptococcus pneumoniae [4]) was 0.25 µg/mL (≈ 0.308 µM). For the same molecule, the MIC (Streptococcus pneumoniae [5]) was 0.25 µg/mL (≈ 0.308 µM), the MIC (Streptococcus pyogenes [7]) was 16 µg/mL (≈ 19.7 µM) and the MIC (Staphylococcus aureus [8]) was 0.125 µg/mL (≈ 0.154 µM).
